Values of other authors in publication PMC4404702 (Molecular imaging and biology : MIB : the official …, 2014).

Key:
σ1 = conditions: read-out: Ki−σ1
σ2 = conditions: read-out: Ki−σ2

Ki (σ1): 1.2 ± 0.2 nM
Ki (σ2): 6.1 ± 1.5 nM
Compound: O=C(Cc1cccc(Br)c1)NCc1ccc(F)cc1 [YUN-143, N-(4′-fluorobenzyl)-4-(3-bromophenyl)acetamide]
